# Measured values reported in PMC10508484, “Development and application of a PBPK modeling strategy to support antimalarial drug development” (CPT: Pharmacometrics & Systems Pharmacology, 2023).
# Read-outs that look alike come from different tables or passages of the source.
# What was measured:
# [1] = In vitro flags for victim and perpetrator properties conferring DDI liability; type: in vitro ADME, human; conditions: in vitro flag, mainly based on in vitro determinations
# [2] = cited from earlier work
# [3] = test system: Caco-2 cells; conditions: cited from earlier work
# [4] = cited from earlier work; remark: listed apart in the source
# [5] = target: T1, CYP2D6 (Homo sapiens, UniProt P10635); test: CYP2D6 inhibition
# T1 sequence (P10635 whole entry): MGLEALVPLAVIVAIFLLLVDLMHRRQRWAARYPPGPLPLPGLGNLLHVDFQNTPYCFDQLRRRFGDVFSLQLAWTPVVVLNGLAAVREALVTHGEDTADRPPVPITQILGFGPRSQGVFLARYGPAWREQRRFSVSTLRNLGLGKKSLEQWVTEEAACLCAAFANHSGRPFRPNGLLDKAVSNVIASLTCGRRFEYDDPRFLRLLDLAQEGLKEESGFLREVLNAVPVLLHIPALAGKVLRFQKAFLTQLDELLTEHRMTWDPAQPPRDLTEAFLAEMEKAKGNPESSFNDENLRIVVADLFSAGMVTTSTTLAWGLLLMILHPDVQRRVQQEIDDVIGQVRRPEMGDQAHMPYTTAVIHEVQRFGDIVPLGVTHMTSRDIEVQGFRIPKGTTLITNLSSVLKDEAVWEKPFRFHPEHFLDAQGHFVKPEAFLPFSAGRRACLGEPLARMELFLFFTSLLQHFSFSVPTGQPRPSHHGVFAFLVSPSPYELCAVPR
# [6] = target: T2, CYP2C8 (Homo sapiens, UniProt P10632); test: Metabolism by CYP2C8 (CLint, fm); conditions: for fmCYP2C8: fraction metabolised used in the PBPK model
# T2 sequence (P10632 1-490): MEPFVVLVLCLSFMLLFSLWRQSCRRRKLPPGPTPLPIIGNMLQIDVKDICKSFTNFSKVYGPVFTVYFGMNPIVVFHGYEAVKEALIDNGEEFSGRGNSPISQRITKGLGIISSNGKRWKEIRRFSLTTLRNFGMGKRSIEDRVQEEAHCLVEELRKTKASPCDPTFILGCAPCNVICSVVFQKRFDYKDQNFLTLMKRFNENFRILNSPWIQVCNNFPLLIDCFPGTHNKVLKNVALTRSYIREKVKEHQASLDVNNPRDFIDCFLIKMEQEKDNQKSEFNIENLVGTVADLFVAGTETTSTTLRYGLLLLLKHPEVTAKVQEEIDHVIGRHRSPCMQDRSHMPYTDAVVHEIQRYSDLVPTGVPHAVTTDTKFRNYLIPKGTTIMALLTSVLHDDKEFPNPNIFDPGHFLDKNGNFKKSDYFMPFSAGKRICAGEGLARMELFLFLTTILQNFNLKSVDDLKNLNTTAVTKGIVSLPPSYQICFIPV
# Source text: (§1) In nearly all cases the fraction of systemic elimination metabolised by a given enzyme (fm) determined in vitro was unavailable in the literature.
# [7] = ref Charman et al., 2020 1; cited from earlier work
# [8] = PBPK input; ref atovaquone oral bioavailability Lavelle et al., 1994 17; chloroquine Walker et al., 1987 29; doxycycline Fabre et al., 1966 45, Saivin et al., 1988 46; proguanil Ke et al., 2014 64; pyronaridine mass balance study Morris et al., 2015 72; cited from earlier work
# [9] = measured (0.4 mg/mL protein where stated); ref Charman et al., 2020 1; cited from earlier work
# [10] = In vivo clearance (CL IV, CL PO, CL renal, fe); conditions: chloroquine model
# [11] = PBPK absorption inputs (fa, ka, tlag, Qgut, Fg); set-up: species or system human; conditions: Relative fa (in vivo fasted AUC / fed AUC; Reuter et al., 2015 for DHA, Crevoisier et al., 1997 for mefloquine)
# Source text: Initial models were built based on available physicochemical and in vitro data to give a ‘bottom-up’ prediction. Areas of uncertainty were highlighted, and the potential impact of uncertainty associated with such parameters was investigated using sensitivity analysis. Available clinical PK data were then used to evaluate and, if required, refine the initial ‘bottom-up’ model. Care was taken to split data into training and test sets wherever possible. The model verification strategy differed across compounds based on availability of different types of clinical data. […] Clinical studies used for drug model development and verification are reported in Table S2 (PK) and Table S3 (DDIs).
# [12] = test system: UGT1A9; test: Metabolism by UGT1A9; type: in vitro ADME, human; conditions: equal contribution assumed
# Source text: as §1
# [13] = test system: UGT2B7; test: Metabolism by UGT2B7; type: in vitro ADME, human; conditions: equal contribution assumed
# Source text: as §1
# [14] = PBPK input; ref Charman et al., 2020 1; cited from earlier work
# [15] = cited from earlier work; for Main binding protein: ref amodiaquine, DEAQ Hietala, 2009 2, atovaquone Nixon et al., 2013 13, 2004 41, mefloquine, tafenoquine (also AGP) Zsila et al., 2008 54
# [16] = test system: CYP1A2; conditions: read-out: CYP1A2 Ki; ref Charman et al., 2020 1; cited from earlier work
# [17] = Fraction unbound in human liver microsomes (fumic); conditions: extrapolated from value measured at 0.4 mg/mL to 0.1 mg/mL, method of Austin et al., 2002
# [18] = target: CYP3A4 (Homo sapiens, UniProt P08684); conditions: for CLint CYP3A4: microsomes
# Chain of CYP3A4 (P08684 whole entry): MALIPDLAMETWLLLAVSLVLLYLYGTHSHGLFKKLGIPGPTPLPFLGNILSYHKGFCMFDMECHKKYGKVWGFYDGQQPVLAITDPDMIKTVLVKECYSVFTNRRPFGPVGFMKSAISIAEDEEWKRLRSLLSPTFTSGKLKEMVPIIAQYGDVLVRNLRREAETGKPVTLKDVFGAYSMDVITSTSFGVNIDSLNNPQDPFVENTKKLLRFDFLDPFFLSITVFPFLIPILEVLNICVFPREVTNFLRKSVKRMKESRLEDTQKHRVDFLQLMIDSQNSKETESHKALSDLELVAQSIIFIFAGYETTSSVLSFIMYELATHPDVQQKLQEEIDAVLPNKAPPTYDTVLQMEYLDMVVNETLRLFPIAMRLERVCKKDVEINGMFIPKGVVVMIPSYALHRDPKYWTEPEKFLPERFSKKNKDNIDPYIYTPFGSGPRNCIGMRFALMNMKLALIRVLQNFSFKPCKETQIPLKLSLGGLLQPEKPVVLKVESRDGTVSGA
# Source text: as §1
# [19] = test system: CYP2C9; conditions: ref mefloquine Karbwang et al., 1988 58; tafenoquine Charman et al., 2020 1; cited from earlier work
# [20] = test system: CYP2B6; test: Metabolism by CYP2B6 (CLint, Vmax, Km, fm); type: in vitro ADME, human
# Source text: as §1
# [21] = target: T1, CYP2D6; test: Metabolism by CYP2D6 (CLint, fm)
# Source text: as §1
# [22] = test system: CYP1A2; test: Metabolism by CYP1A2 (CLint, fm); type: in vitro ADME, human
# Source text: as §1
# [23] = in vitro; conditions: human, plasma
# [24] = Blood to plasma ratio (B:P); conditions: PBPK input; unpublished (in-house) data
# [25] = PBPK input, ref amodiaquine, DEAQ Winstanley et al., 1987 9, atovaquone Rolan et al., 1997 14, azithromycin Lalak et al., 1993 23, carboxyprimaquine Mihaly et al., 1985 26, chloroquine Walker et al., 1987 29, DHA EMA Website, 44, doxycycline Raghuram et al., 1982 48, Nguyen et al., 1989 49, mefloquine Schwartz et al., 1982 57, primaquine White, 1985 62, proguanil Jeppesen et al., 1997 34, pyrimeth
# [26] = clinically observed oral (in vivo) clearance, pyronaridine: blood, ref amodiaquine Winstanley et al., 1987 9, DEAQ Akande et al., 2015 8, Scarsi et al., 2014 35, Tarning et al., 2012 36, Orrell et al., 2008 37, DHA Na-Bangchang et al., 2004 42, lumefantrine Lefevre et al., 2002 52, Hoglund et al., 2015 53, mefloquine Charles et al., 2007 56, proguanil Jeppesen et al., 1997 34, pyronaridine Jittama
# [27] = retrograde calculations from CL PO, blood
# [28] = fraction metabolised used in the PBPK model
smiles,measurement,setting,value
"CCN(CC)Cc1cc(Nc2ccnc3cc(Cl)ccc23)ccc1O [Amodiaquine, amodiaquine]",Risk as a victim,[1],Substrate of CYP2C8
same,AUC Obs,"[2]; in vivo, 540 mg",331 ng·h/mL
same,Caco-2 (Papp A-B),[3]; Caco-2,9.8 10-6 cm/s
same,CL PO,"[4]; in vivo, po",2500 L/h
same,CL renal,[4]; in vivo,3.5 L/h
same,Ki,[5],0.45 µM
"CCN(CC)CCCC(C)Nc1ccnc2cc(Cl)ccc12 (centres unmarked) [Chloroquine, chloroquine]",Risk as a perpetrator,[1],CYP2D6 inhibitor
same,Risk as a victim,[1],Substrate of CYP2C8 and CYP3A4; renally cleared
same,fmCYP2C8,[6],11%
same,CLint CYP2C8,[6]; human,0.27 µL/min/pmol
same,Cmax Obs,"[2]; 300 mg infusion (over 23.5 mins) SD, ref Gustafsson et al., 1983 16",837 ng/mL
same,Cmax Obs,"[2]; 300 mg soln. SD, ref Gustafsson et al., 1983 16",73.0 ng/mL
same,Cmax Obs,"[2]; 300 mg tablet SD, ref Gustafsson et al., 1983 16",76.0 ng/mL
same,B:P,[7],3.5
same,fa,[8],1
same,CL renal,[4]; [25],24.78 L/h
same,CL IV,"[4]; clinically observed, ref atovaquone Lavelle et al., 1994 17, chloroquine Walker et al., 1987 29, Gustafsson et al., 1983 30, doxycycline Raghuram et al., 1982 48, Nguyen et al., 1989 49, primaquine Mihaly et al., 1985 26, quinine White et al., 1983 77, Paintaud et al., 1993 78",39.84 L/h
same,fumic,[9],0.5
same,renal clearance share of elimination,[10],57%
"C[C@H]1[C@@H](O)O[C@@H]2O[C@@]3(C)CC[C@H]4[C@H](C)CC[C@@H]1[C@@]24OO3 [DHA, dihydroartemisinin]",Risk as a perpetrator,[1],CYP1A2 inhibitor
same,Risk as a victim,[1],Substrate of UGT1A9 and UGT2B7
same,fa,[11]; listed as DHA (administered as DHA),0.71
same,fa,[11]; listed as DHA (administered as artesunate),1
same,fmUGT1A9,[12],50%
same,fmUGT2B7,[13],50%
same,Log P,[14],2.3
same,AUC Obs,"[2]; 4 mg/kg SD, 0-inf, ref Na-Bangchang et al., 2004 20",907 ng·h/mL
same,AUC Obs,"[2]; 120 mg SD, 0-inf, ref Chinh et al., 2009 23",370 ng·h/mL
same,AUC Obs,"[2]; 180 mg SD (artesunate), 0-inf, ref Jittamala et al., 2015 15",1400 ng·h/mL
same,AUC Obs,"[2]; 240 mg SD, 0-inf, ref Le et al., 1999 22",1980 ng·h/mL
same,AUC Obs,"[2]; 300 mg SD, 0-inf, ref Na-Bangchang et al., 1997 21",2018 ng·h/mL
same,Main binding protein,[15]; DHA Batty et al.,AGP
same,Caco-2 (Papp A-B),"[3]; calibrated against propranolol, plasma as medium for atovaquone and piperaquine, ref Charman et al., 2020 1",49 10-6 cm/s
same,CL PO,[4]; [26],273.2 L/h
same,Ki,[16],4.38 µM
same,fumic,[17],0.964
"OC(c1cc(C(F)(F)F)nc2c(C(F)(F)F)cccc12)C1CCCCN1 (centres unmarked) [Mefloquine, mefloquine]",Risk as a victim,[1],Substrate of CYP3A4
same,fmCYP3A4,[18],95%
same,CLint CYP3A4,[18],0.168 µL/min/pmol
same,Ki,[19],260 µM
same,AUC Obs,"[2]; in vivo, 250 mg",116000 ng·h/mL
same,Cmax Obs,"[2]; in vivo, 250 mg",310 ng/mL
same,AUC Obs,"[2]; in vivo, 750 mg",393500 ng·h/mL
same,AUC Obs,"[2]; in vivo, 1000 mg",516000 ng·h/mL
same,Cmax Obs,"[2]; in vivo, 1000 mg",960 ng/mL
same,Cmax Obs,"[2]; in vivo, 1500 mg",1440 ng/mL
same,Caco-2 (Papp A-B),[3]; Caco-2,66 10-6 cm/s
same,CL PO,"[4]; in vivo, po",2.09 L/h
same,CL renal,[4]; in vivo,0.07 L/h
"COc1ccc2nc3cc(Cl)ccc3c(Nc3cc(CN4CCCC4)c(O)c(CN4CCCC4)c3)c2n1 [Pyronaridine, pyronaridine]",Risk as a perpetrator,[1],CYP2D6 and P‐gp inhibitor
same,Risk as a victim,[1],"Substrate of CYP1A2, CYP2B6, CYP2C8, CYP2D6 and CYP3A4"
same,CLint CYP2C8,[6]; derived from in vivo clearance by retrograde calculations,0.19 µL/min/pmol
same,fmCYP2C8,[6],4.8%
same,fmCYP3A4,[18],61.1%
same,CLint CYP3A4,[18],0.42 µL/min/pmol
same,fmCYP2B6,[20]; fraction metabolised used in the PBPK model (artemether: without induction),7.7%
same,CLint CYP2B6,[20]; [27],0.47 µL/min/pmol
same,fmCYP2D6,[21]; [28],20.6%
same,CLint CYP2D6,[21]; retrograde calculations,1.33 µL/min/pmol
same,fmCYP1A2,[22]; [28],4.7%
same,CLint CYP1A2,[22]; [27],0.09 µL/min/pmol
same,fraction unbound,[23],0.058
same,fa,[8],0.74
same,CL renal,[4]; [25],0.16 L/h
same,CL PO,[4]; [26],22.1 L/h
same,fe (fraction excreted unchanged in urine),"[4]; ref atovaquone Rolan et al., 1997 14, mefloquine Schwartz et al., 1982 57, primaquine White, 1985 62, proguanil (extensive metabolisers) Jeppesen et al., 1997 34, pyronaridine Wattanavijitkul, 2010 74, sulfadoxine assumed with Edstein, 1987 83",1%
same,B:P,[24],1.5
"COc1cc(C)c2c(Oc3cccc(C(F)(F)F)c3)c(OC)cc(NC(C)CCCN)c2n1 (centres unmarked) [Tafenoquine, tafenoquine]",Risk as a perpetrator,[1],CYP3A4 and CYP2C9 inhibitor
same,Ki,[19],10 µM
same,AUC Obs,"[2]; 300 mg SD, 0-72 h, ref Green et al., 2014 45",10611 ng·h/mL
same,Cmax Obs,"[2]; 300 mg SD, ref Green et al., 2014 45",186 ng/mL
same,AUC Obs,"[2]; 400 mg QD (3 days), 0-72 h, ref Green et al., 2014 45",41896 ng·h/mL
same,Cmax Obs,"[2]; 400 mg QD (3 days), ref Green et al., 2014 45",724 ng/mL
same,AUC Obs,"[2]; 600 mg SD, 0-72 h, ref Green et al., 2014 45",22986 ng·h/mL
same,Cmax Obs,"[2]; 600 mg SD, ref Green et al., 2014 45",422 ng/mL
same,fu,"[15]; PBPK input, ref atovaquone Mepron Prescribing Information, 2008, Nixon et al., 2013 13, Rolan et al., 1997 14, azithromycin Foulds et al., 1990 20, chloroquine Ofori-Adjei et al., 1986 27, Walker et al., 1983 28, DHA Batty et al., 2004 41 (healthy volunteers), lumefantrine CDER submission 22-269, proguanil Wattanagoon et al., 1987 63, tafenoquine Dow et al., 2020 84",0.005
same,"fu, range reported in the literature","[15]; depending on the methodology used, ref literature",0.0007 to 0.11
same,Main binding protein,[15]; DHA Batty et al.,HSA
same,B:P,[7],1.3
same,CL PO,[4]; [26],3.08 L/h
